Assay results: PubChem BioAssay AID2060599 (Molecular Pharmacology Branch, DTP, NCI, 2025)
Where “and” joins values, the source holds several entries; their conditions need not be identical. Equal entries are not always repeated.

These compounds were tested on 817829-284-R-J1-PDC complex spheroids, viability (assay: Anticancer human tumor 817829-284-R-J1-PDC patient-derived colon adenocarcinoma cell line growth inhibition [CLK]). Conditions: compound 0.000316 µM; active compounds read low.
Excerpt: A high-throughput screen of multi-cell type tumor spheroids was designed to identify active combinations of […] and targeted small molecules. Complex spheroids include a stromal component modeled by human endothelial cells (HUVEC) and fibroblasts modeled by human mesenchymal stem cells (MSCs). The concentration ranges selected for each drug and investigational agent were based upon clinically achievable concentrations if the clinical Cmax of the agent was known.
Compounds. The drugs and investigational agents: cirtuvivint (SM08502; NSC835563), CC-671 (NSC850746), vemurafenib (NSC761431), tapotoclax (NSC804041), sotorasib (NSC818433), adagrasib (NSC831453), MRTX-1133 (NSC836407), BAY2416964 (NSC825713), copanlisib (NSC816437), inavolisib (NSC800729), abemaciclib (NSC768073), osimertinib (NSC779217), entinostat (NSC756642), eltanexor (KPT-8602, NSC794443), venetoclax (NSC766270), ceralasertib (NSC777638), bortezomib (NSC756655), olaparib (NSC753686), talazoparib (NSC767125), alisertib (NSC759677), peposertib (NSC802822), gemcitabine (NSC613327), 5-fluorouracil (NSC19893), SN-38 (NSC673596), oxaliplatin (NSC266046), paclitaxel (NSC125973), and doxorubicin (NSC123127), were obtained from the National Cancer Institute (NCI) Developmental Therapeutics Program Chemical Repository. The FDA-approved anticancer drug set is available from the Developmental Therapeutics Program at https://dtp.cancer.gov/organization/dscb/obtaining/available plates.htm. […] The stock solutions were prepared in dimethyl sulfoxide (DMSO, Sigma-Aldrich, St. Louis, MO, cat. D2650), except for the platinum complexes which were prepared in saline (Quality Biological, Gaithersburg, MD, cat. 114-055-101), at 800-fold the tested concentration and stored at -70 degrees C prior to their use. All drugs and investigational agents were tested over a range starting from a high concentration at or near the clinical Cmax and decreasing in half-log increments. If the clinical Cmax for an agent had not been determined, the highest concentration tested was 10 microM.
Cell Culture. All cells were maintained in an incubator at 37 degrees C and 5% CO2 with 95% humidity. The PDC lines were cultured according to standard operating procedures established by the NCI PDMR. Briefly, all PDCs were thawed and cultured in Matrigel-coated flasks prepared with a working solution of 1X Ham's F-12 nutrient mix, without supplementation (Invitrogen, Waltham, MA, cat. 11765054), 100 U/mL penicillin-streptomycin (Invitrogen, cat. 15140122), and 2.5% Matrigel (Corning Inc., Corning, NY, cat. 354248) for the first three passages. The 947758-054-R-J2-PDC line was cultured in 6B/Colon 1A media, which includes advanced DMEM/F-12 (Thermo Fisher Scientific, cat. 12634028), 10 mM HEPES (Thermo Fisher Scientific, cat. 15630080), 1X GlutaMAX supplement (Thermo Fisher Scientific, cat. 35050061), 0.1 mg/mL primocin (InvivoGen, cat. ant-pm-2), 10% defined fetal bovine serum, heat inactivated (HyClone Laboratories Inc., cat. SH30070.03HI), 1.25 mM N-Acetyl-L-cysteine (Sigma-Aldrich, cat. A9165), 10 mM nicotinamide (Sigma-Aldrich, cat. N0636), 1X B-27 supplement (Thermo Fisher Scientific, cat. 17504044), 1X N-2 supplement (Thermo Fisher Scientific, cat. 17502048), and 10 microM Y-27632 dihydrochloride (Tocris Bioscience, cat. 1254). The 876862-298-R-J1-PDC was cultured in 6E media, which includes all 6B/Colon 1A media components plus 50% L-WRN conditioned media (ATCC, cat. CRL-3276), 50 ng/mL recombinant human EGF recombinant protein (hEGF; Thermo Fisher Scientific, cat. PHG0311), 10 ng/mL recombinant human fibroblast growth factor 10 (hGFG-10; PeproTech, cat. 100-26), 1 ng/mL recombinant human fibroblast growth factor 2 (hFGF-2; PeproTech, cat. 100-18B), and 1 µM prostaglandin E2 (PGE2; Tocris, cat. 2296). The 227483-062-R1-J1-PDC line was cultured in Panc media, containing all 6E components except hFGF-2, with the addition of 500 nM SB-431542 (Selleckchem, cat. S1067) and 10 nM gastrin (Tocris, cat. 3006). […]
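Note: spheroids exposed to the agents for seven days before readout.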

**Q.** Which viability, T/C does the source give for `Cn1ncnc1[C@H]1c2n[nH]c(=O)c3cc(F)cc(c23)N[C@@H]1c1ccc(F)cc1` here?
**A.** 65.2% and 92.2%

Same assay, conditions: compound 0.000949 µM; active compounds read low

**Q.** With `C=CC(=O)Nc1cc(Nc2nccc(-c3cn(C)c4ccccc34)n2)c(OC)cc1N(C)CCN(C)C` as the compound, how does the viability, T/C read?
**A.** 108%

**Q.** `CC(C)CC(NC(=O)C(Cc1ccccc1)NC(=O)c1cnccn1)B(O)O` (stereo not given) was tested. Which viability, T/C did it give?
**A.** 80.8% and 93.1%

Same assay, conditions: compound 0.001 µM; active compounds read low

**Q.** For `Cn1ncnc1[C@H]1c2n[nH]c(=O)c3cc(F)cc(c23)N[C@@H]1c1ccc(F)cc1`, which viability, T/C is on record?
**A.** 93.3% and 76.2%

Same assay, conditions: compound 0.003 µM; active compounds read low

**Q.** For `C=CC(=O)Nc1cc(Nc2nccc(-c3cn(C)c4ccccc34)n2)c(OC)cc1N(C)CCN(C)C`, which viability, T/C is on record?
**A.** 101%

**Q.** For `CC(C)CC(NC(=O)C(Cc1ccccc1)NC(=O)c1cnccn1)B(O)O` (stereo not given), which viability, T/C is on record?
**A.** 4.56% and 1.33%

Same assay, conditions: compound 0.00316 µM; active compounds read low

**Q.** `CCN1CCN(Cc2ccc(Nc3ncc(F)c(-c4cc(F)c5nc(C)n(C(C)C)c5c4)n3)nc2)CC1` was tested. Which viability, T/C did it give?
**A.** 79.4%

**Q.** With `CCc1c2c(nc3ccc(O)cc13)-c1cc3c(c(=O)n1C2)COC(=O)[C@]3(O)CC` as the compound, how does the viability, T/C read?
**A.** 23.1% and 29.4%

**Q.** Which viability, T/C does the source give for `COc1c(OCCCN2CCOCC2)ccc2c3n(c(=NC(=O)c4cnc(N)nc4)nc12)CCN3` here?
**A.** 96% and 133%

**Q.** `Cn1ncnc1[C@H]1c2n[nH]c(=O)c3cc(F)cc(c23)N[C@@H]1c1ccc(F)cc1` was tested. Which viability, T/C did it give?
**A.** 50.8% and 73.8%

Same assay, conditions: compound 0.00949 µM; active compounds read low

**Q.** For `C=CC(=O)Nc1cc(Nc2nccc(-c3cn(C)c4ccccc34)n2)c(OC)cc1N(C)CCN(C)C`, which viability, T/C is on record?
**A.** 85.9%

**Q.** Which viability, T/C does the source give for `CC(C)CC(NC(=O)C(Cc1ccccc1)NC(=O)c1cnccn1)B(O)O` (stereo not given) here?
**A.** 0.1% and 0.36%

**Q.** For `NC(=O)C(=Cn1cnc(-c2cc(C(F)(F)F)cc(C(F)(F)F)c2)n1)c1cncnc1`, which viability, T/C is on record?
**A.** 69%

Same assay, conditions: compound 0.01 µM; active compounds read low

**Q.** For `CCN1CCN(Cc2ccc(Nc3ncc(F)c(-c4cc(F)c5nc(C)n(C(C)C)c5c4)n3)nc2)CC1`, which viability, T/C is on record?
**A.** 55.3%

**Q.** `CCc1c2c(nc3ccc(O)cc13)-c1cc3c(c(=O)n1C2)COC(=O)[C@]3(O)CC` was tested. Which viability, T/C did it give?
**A.** 17.5% and 16.5%

**Q.** With `COc1c(OCCCN2CCOCC2)ccc2c3n(c(=NC(=O)c4cnc(N)nc4)nc12)CCN3` as the compound, how does the viability, T/C read?
**A.** 52% and 68.5%

**Q.** How did the viability, T/C turn out when `Cn1ncnc1[C@H]1c2n[nH]c(=O)c3cc(F)cc(c23)N[C@@H]1c1ccc(F)cc1` was run?
**A.** 48.2% and 62.2%

Same assay, conditions: compound 0.03 µM; active compounds read low

**Q.** For `C=CC(=O)Nc1cc(Nc2nccc(-c3cn(C)c4ccccc34)n2)c(OC)cc1N(C)CCN(C)C`, which viability, T/C is on record?
**A.** 72.9%

**Q.** With `CC(C)CC(NC(=O)C(Cc1ccccc1)NC(=O)c1cnccn1)B(O)O` (stereo not given) as the compound, how does the viability, T/C read?
**A.** 0.16% and 0.15%

**Q.** Which viability, T/C does the source give for `NC(=O)C(=Cn1cnc(-c2cc(C(F)(F)F)cc(C(F)(F)F)c2)n1)c1cncnc1` here?
**A.** 23.2%

Same assay, conditions: compound 0.0316 µM; active compounds read low

**Q.** `C=C(F)C(=O)N1CCN(c2nc(OCC3CCCN3C)nc3c2CCN(c2cccc4cccc(Cl)c24)C3)CC1CC#N` (stereo not given) was tested. Which viability, T/C did it give?
**A.** 99.4% and 105%

**Q.** How did the viability, T/C turn out when `C=CC(=O)N1CCN(c2nc(=O)n(-c3c(C)ccnc3C(C)C)c3nc(-c4c(O)cccc4F)c(F)cc23)C(C)C1` (stereo not given) was run?
**A.** 101% and 136%

**Q.** How did the viability, T/C turn out when `CCCS(=O)(=O)Nc1ccc(F)c(C(=O)c2c[nH]c3ncc(-c4ccc(Cl)cc4)cc23)c1F` was run?
**A.** 86.7% and 79.4%

**Q.** How did the viability, T/C turn out when `CCN1CCN(Cc2ccc(Nc3ncc(F)c(-c4cc(F)c5nc(C)n(C(C)C)c5c4)n3)nc2)CC1` was run?
**A.** 57.5%

**Q.** Which viability, T/C does the source give for `CCc1c2c(nc3ccc(O)cc13)-c1cc3c(c(=O)n1C2)COC(=O)[C@]3(O)CC` here?
**A.** 13.9% and 16.5%

**Q.** How did the viability, T/C turn out when `CN1CCN(c2cc(C(=O)Nc3cc4cc(-c5cnn(C)c5)ccc4cn3)ccn2)CC1` was run?
**A.** 70.5% [middle of 12 runs]

**Q.** Which viability, T/C does the source give for `CNC(=O)c1ccc(Nc2nc(OC3CCCC3)c3c(-c4ccc5nc(C)oc5c4)c[nH]c3n2)c(OC)c1` here?
**A.** 33.6% [middle of 8 runs]

**Q.** For `COC1C=CCC(C)C(C)S(=O)(=O)NC(=O)c2ccc3c(c2)N(CC2CCC21)CC1(CCCc2cc(Cl)ccc21)CO3` (stereo not given), which viability, T/C is on record?
**A.** 125% and 85.6%

**Q.** With `COc1c(OCCCN2CCOCC2)ccc2c3n(c(=NC(=O)c4cnc(N)nc4)nc12)CCN3` as the compound, how does the viability, T/C read?
**A.** 29% and 55.5%

**Q.** With `Cn1ncnc1[C@H]1c2n[nH]c(=O)c3cc(F)cc(c23)N[C@@H]1c1ccc(F)cc1` as the compound, how does the viability, T/C read?
**A.** 34.8% and 42%

Same assay, conditions: compound 0.0949 µM; active compounds read low

**Q.** Which viability, T/C does the source give for `C=CC(=O)Nc1cc(Nc2nccc(-c3cn(C)c4ccccc34)n2)c(OC)cc1N(C)CCN(C)C` here?
**A.** 99.5%

**Q.** With `CC(C)CC(NC(=O)C(Cc1ccccc1)NC(=O)c1cnccn1)B(O)O` (stereo not given) as the compound, how does the viability, T/C read?
**A.** 0.05% and 0.24%

**Q.** How did the viability, T/C turn out when `NC(=O)C(=Cn1cnc(-c2cc(C(F)(F)F)cc(C(F)(F)F)c2)n1)c1cncnc1` was run?
**A.** 17.2%

Same assay, conditions: compound 0.1 µM; active compounds read low

**Q.** `C=C(F)C(=O)N1CCN(c2nc(OCC3CCCN3C)nc3c2CCN(c2cccc4cccc(Cl)c24)C3)CC1CC#N` (stereo not given) was tested. Which viability, T/C did it give?
**A.** 73% and 144%

**Q.** `C=CC(=O)N1CCN(c2nc(=O)n(-c3c(C)ccnc3C(C)C)c3nc(-c4c(O)cccc4F)c(F)cc23)C(C)C1` (stereo not given) was tested. Which viability, T/C did it give?
**A.** 97.2% and 101%

**Q.** With `CCCS(=O)(=O)Nc1ccc(F)c(C(=O)c2c[nH]c3ncc(-c4ccc(Cl)cc4)cc23)c1F` as the compound, how does the viability, T/C read?
**A.** 48.8% and 64.2%

**Q.** For `CCN1CCN(Cc2ccc(Nc3ncc(F)c(-c4cc(F)c5nc(C)n(C(C)C)c5c4)n3)nc2)CC1`, which viability, T/C is on record?
**A.** 50.8%

**Q.** How did the viability, T/C turn out when `CCc1c2c(nc3ccc(O)cc13)-c1cc3c(c(=O)n1C2)COC(=O)[C@]3(O)CC` was run?
**A.** 9.42% and 10.3%

**Q.** `CN1CCN(c2cc(C(=O)Nc3cc4cc(-c5cnn(C)c5)ccc4cn3)ccn2)CC1` was tested. Which viability, T/C did it give?
**A.** 20% [middle of 12 runs]

**Q.** Which viability, T/C does the source give for `CNC(=O)c1ccc(Nc2nc(OC3CCCC3)c3c(-c4ccc5nc(C)oc5c4)c[nH]c3n2)c(OC)c1` here?
**A.** 28.2% [middle of 8 runs]

**Q.** For `COC1C=CCC(C)C(C)S(=O)(=O)NC(=O)c2ccc3c(c2)N(CC2CCC21)CC1(CCCc2cc(Cl)ccc21)CO3` (stereo not given), which viability, T/C is on record?
**A.** 98.4% and 97.6%

**Q.** Which viability, T/C does the source give for `COc1c(OCCCN2CCOCC2)ccc2c3n(c(=NC(=O)c4cnc(N)nc4)nc12)CCN3` here?
**A.** 18.8% and 16.3%

**Q.** How did the viability, T/C turn out when `Cn1ncnc1[C@H]1c2n[nH]c(=O)c3cc(F)cc(c23)N[C@@H]1c1ccc(F)cc1` was run?
**A.** 33.3% and 35.4%

Same assay, conditions: compound 0.3 µM; active compounds read low

**Q.** Which viability, T/C does the source give for `C=CC(=O)Nc1cc(Nc2nccc(-c3cn(C)c4ccccc34)n2)c(OC)cc1N(C)CCN(C)C` here?
**A.** 73.8%

**Q.** With `CC(C)CC(NC(=O)C(Cc1ccccc1)NC(=O)c1cnccn1)B(O)O` (stereo not given) as the compound, how does the viability, T/C read?
**A.** 0.08% and 0.2%
